Literature values in patent US12036329B2, “Mucoadhesive dispersion nanoparticle system and method for production the same” (LEAD BIOTHERAPEUTICS LTD, priority 2018, dated 2024).

Tested on: alpha-adrenergic receptor
Details: generally accepted

For `Cc1cc(C(C)(C)C)cc(C)c1CC1=NCCN1` [xylometazoline], the Duration of effect is listed as 5 to 6 h.
